# Results published in US4436751A, “Nitrobenzyl monates antibacterial compounds” (Beecham Group Limited, priority 1980, dated 1984).
# Where two headings read alike, the source gives them in different places.
# Assays:
# Assay type in all cases: cell-based
# [1] = system: M. suipneumoniae HR(2); assay: Anti-mycoplasmal MIC in vitro, Friis broth agarose (Table 1); conditions: Mesomycoplasma hyopneumoniae, 144 h
# [2] = system: M. suipneumoniae Str. 11; assay: as above; conditions: Mesomycoplasma hyopneumoniae, STR.11, 144 h
# [3] = system: M. suipneumoniae J2206/183b; assay: as above; conditions: Mesomycoplasma hyopneumoniae, J2206/183B, 144 h
# [4] = system: M. suipneumoniae MS 16; assay: as above; conditions: Mesomycoplasma hyopneumoniae, MS16, 144 h
# [5] = system: M. suipneumoniae PW/C/210; assay: as above; conditions: Mesomycoplasma hyopneumoniae, 144 h
# [6] = system: M. suipneumoniae LABER; assay: as above; conditions: Mesomycoplasma hyopneumoniae, 144 h
# [7] = system: M. suipneumoniae TAM 6N; assay: as above; conditions: Mesomycoplasma hyopneumoniae, TAM6N, 144 h
# [8] = system: M. suipneumoniae ATCC 25095; assay: as above; conditions: Mesomycoplasma hyopneumoniae, ATCC25095, 144 h
# [9] = system: M. suipneumoniae NCTC 10110; assay: as above; conditions: Mesomycoplasma hyopneumoniae, NCTC10110, 144 h
# [10] = system: M. hyorhinis ATCC 25021; assay: as above; conditions: Mesomycoplasma hyorhinis, ATCC25021, 144 h
# [11] = system: M. bovis RCTC 10131; assay: microbe, parasite or virus in culture; conditions: RCTC10131, 144 h
# [12] = system: M. gallisepticum S6; assay: Anti-mycoplasmal MIC in vitro, Friis broth agarose (Table 1); conditions: Mycoplasmoides gallisepticum
# [13] = system: Corynebacterium pyogenes CY1; assay: Veterinary bacteria MIC, Diagnostic Sensitivity Test Agar (Table 2); conditions: Trueperella pyogenes
# Protocol: (§1) The values were determined using a two fold serial dilutions in Diagnostic Sensitivity Test Agar with an inoculum of 10^4 organisms and incubation for 18 hours at 37° C.
# [14] = system: E. Coli E1; assay: as above; conditions: Escherichia coli
# Protocol: as §1
# [15] = system: Erysipelothrix rhusiopathiae NCTC 8163; assay: as above
# Protocol: as §1
# [16] = system: Past. multocida PA2; assay: as above; conditions: Pasteurella multocida
# Protocol: as §1
# [17] = system: S. dublin S7; assay: as above; conditions: Salmonella enterica
# Protocol: as §1
# [18] = system: S. typhimurium S18; assay: as above; conditions: Salmonella enterica
# Protocol: as §1
# [19] = system: Staph. aureus 152; assay: as above
# Protocol: as §1
# [20] = system: Staph. aureus B4; assay: as above; conditions: Staphylococcus aureus
# Protocol: as §1
# [21] = system: Staph. aureus Oxford; assay: as above; conditions: Staphylococcus aureus
# Protocol: as §1
# [22] = system: Strep. agalactiae SPA1; assay: as above; conditions: Streptococcus agalactiae
# Protocol: as §1
# [23] = system: Strep. dylgalactiae SPD1; assay: as above
# Protocol: as §1
# [24] = system: Strep. suis (group D) SPS11; assay: as above; conditions: Streptococcus suis
# Protocol: as §1
# [25] = system: E. coli ESS; assay: Human bacteria MIC, nutrient agar with chocolated horse blood (Table 3); conditions: Escherichia coli
# Protocol: (§2) The values were determined by serial dilutions in nutrient agar with 5% chocolated horse blood after incubations for 18 hours at 37° C.
# [26] = system: Neisseria catarrhalis 1502; assay: as above
# Protocol: as §2
# [27] = system: Strep. 2733-B; assay: as above
# Protocol: as §2
# [28] = system: Strep. 641848-C; assay: as above
# Protocol: as §2
compound,measurement,setting,value
"C/C(=C\C(=O)OCc1ccc([N+](=O)[O-])c([N+](=O)[O-])c1)CC1OCC(CC2OC2C(C)C(C)O)C(O)C1O (centres unmarked) [Example 9, 3,4-dinitrobenzyl monate A]",MIC,[1],0.5 µg/mL
same,MIC,[2],0.25 µg/mL
same,MIC,[3],1 µg/mL
same,MIC,[4],0.25 µg/mL
same,MIC,[5],0.25 µg/mL
same,MIC,[6],0.25 µg/mL
same,MIC,[7],0.5 µg/mL
same,MIC,[8],0.25 µg/mL
same,MIC,[9],0.5 µg/mL
same,MIC,[10],0.25 µg/mL
same,MIC,[11],≤ 0.01 µg/mL
same,MIC,"[12]; S6, 144 h",5 µg/mL
same,MIC,"[13]; CY1, 18 h",> 80 µg/mL
same,MIC,[14]; 18 h,80 µg/mL
same,MIC,"[15]; Erysipelothrix rhusiopathiae, NCTC8163, 18 h",40 µg/mL
same,MIC,"[16]; PA2, 18 h",0.156 µg/mL
same,MIC,"[17]; S7, 18 h",> 80 µg/mL
same,MIC,"[18]; TYPHIMURIUM, 18 h",80 µg/mL
same,MIC,"[19]; Staphylococcus aureus, 152, 18 h",0.312 µg/mL
same,MIC,"[20]; B4, 18 h",0.625 µg/mL
same,MIC,[21]; 18 h,0.312 µg/mL
same,MIC,"[22]; SPA1, 18 h",0.312 µg/mL
same,MIC,[23]; 18 h,0.07 µg/mL
same,MIC,[24]; 18 h,5 µg/mL
same,MIC,[25]; 18 h,1 µg/mL
same,MIC,"[26]; Neisseria, 1502, 18 h",0.05 µg/mL
same,MIC,[27]; 18 h,2.5 µg/mL
same,MIC,[28]; 18 h,2.5 µg/mL
"C/C(=C\C(=O)OC(C)c1ccc([N+](=O)[O-])cc1)CC1OCC(CC2OC2C(C)C(C)O)C(O)C1O (centres unmarked) [Example 4, 1-(p-nitrophenyl)ethyl monate A]",MIC,"[1]; M. suipneumoniae HR(2), in vitro, 6 days 37° C., read-out: MIC",2.5 µg/mL
same,MIC,[2],1 µg/mL
same,MIC,[3],1 µg/mL
same,MIC,[4],1 µg/mL
same,MIC,[5],1 µg/mL
same,MIC,[6],1 µg/mL
same,MIC,"[7]; M. suipneumoniae TAM 6N, in vitro, 6 days 37° C., read-out: MIC",2.5 µg/mL
same,MIC,[8],1 µg/mL
same,MIC,"[9]; M. suipneumoniae NCTC 10110, in vitro, 6 days 37° C., read-out: MIC",2.5 µg/mL
same,MIC,[10],0.5 µg/mL
same,MIC,[11],0.025 µg/mL
same,MIC,"[12]; 144 h, M. gallisepticum S6, in vitro, 6 days 37° C., read-out: MIC",> 10 µg/mL
same,MIC,"[13]; Corynebacterium pyogenes CY1, DST Agar, 10^4 organisms, 18 hours 37° C., read-out: MIC",> 80 µg/mL
same,MIC,"[14]; E. Coli E1, DST Agar, 10^4 organisms, 18 hours 37° C., read-out: MIC",> 80 µg/mL
same,MIC,"[15]; NCTC8163, Erysipelothrix rhusiopathiae NCTC 8163, DST Agar, 10^4 organisms, 18 hours 37° C., read-out: MIC",40 µg/mL
same,MIC,"[16]; Past. multocida PA2, DST Agar, 10^4 organisms, 18 hours 37° C., read-out: MIC",2.5 µg/mL
same,MIC,"[17]; S. dublin S7, DST Agar, 10^4 organisms, 18 hours 37° C., read-out: MIC",> 80 µg/mL
same,MIC,"[18]; S. typhimurium S18, DST Agar, 10^4 organisms, 18 hours 37° C., read-out: MIC",> 80 µg/mL
same,MIC,"[19]; Staphylococcus aureus, Staph. aureus 152, DST Agar, 10^4 organisms, 18 hours 37° C., read-out: MIC",1.25 µg/mL
same,MIC,"[20]; Staph. aureus B4, DST Agar, 10^4 organisms, 18 hours 37° C., read-out: MIC",2.5 µg/mL
same,MIC,"[21]; Staph. aureus Oxford, DST Agar, 10^4 organisms, 18 hours 37° C., read-out: MIC",1.25 µg/mL
same,MIC,"[22]; Strep. agalactiae SPA1, DST Agar, 10^4 organisms, 18 hours 37° C., read-out: MIC",2.5 µg/mL
same,MIC,"[23]; Strep. dylgalactiae SPD1, DST Agar, 10^4 organisms, 18 hours 37° C., read-out: MIC",0.625 µg/mL
same,MIC,"[24]; Strep. suis (group D) SPS11, DST Agar, 10^4 organisms, 18 hours 37° C., read-out: MIC",20 µg/mL
same,MIC,"[25]; E. coli ESS, nutrient agar 5% chocolated horse blood, 18 hours 37° C., read-out: MIC",2.5 µg/mL
same,MIC,"[26]; Neisseria catarrhalis 1502, nutrient agar 5% chocolated horse blood, 18 hours 37° C., read-out: MIC",0.5 µg/mL
same,MIC,"[27]; Strep. 2733-B, nutrient agar 5% chocolated horse blood, 18 hours 37° C., read-out: MIC",1 µg/mL
same,MIC,"[28]; Strep. 641848-C, nutrient agar 5% chocolated horse blood, 18 hours 37° C., read-out: MIC",1 µg/mL
